Measured values taken from patent US20090076098A1, “METHODS, KITS, AND COMPOUNDS FOR DETERMINING RESPONSIVENESS TO TREATMENT OF A PATHOLOGICAL DISORDER BY EPOTHILONES” (priority 2007, published 2009).
Values joined by “and” are separate entries in the source; they are usually repeats but may differ in a detail not shown here. Equal values may be shown once.

What was measured:
[1] = tested on: non small cell lung cancer (NSCLC) xenograft models; format: in vivo; settings: for percentage of tumors with a T/C ratio<20%: share of models; for percentage of responses overall (T/C): share of models responding
Procedure: FIG. 1: Preclinical lung cancer study design: 22 non small cell lung cancer (NSCLC) xenograft models were derived from patients primary tumors directly after surgery; at low murine passages response to Sagopilone and standard chemotherapy was assessed and samples grouped into responders and non-responders. RNA from untreated control tumors was subjected to Affymetrix gene expression analysis for discrimination of gene expression levels at baseline with tumor response.
Lung cancer xenograft models were established by subcutaneously transplanting fresh tumor material from NSCLC patients into nude mice. Tumor types included pleomorphic carcinoma (7187, 7336), squamous cell carcinoma (7126, 7177, 7298, 7343, 7462, 7433, 7530), dedifferentiated carcinoma (7668), adenocarcinoma (7064, 7198, 7406, 7387, 7466, 7612) and small cell lung cancer ([…]).
Antitumor activity was determined using either the reduction in tumor area in treated versus control mice (T/C ratio), or the mean change in absolute tumor volume compared with volume at baseline (day of first treatment).
1° lung cancer biopsies obtained from patients with established cancer were transplanted into nude mice. Tumor growth curves for the treatment with Etoposide, Carboplatin, Gemcitabine, Taxol, Navelbine, Cetuximab, Erlotinib und Sagopilone were generated. Mutation status of p53 was analyzed in the models according to methods known in the art. Fourteen Sagopilone responders and eight Sagopilone non-responders were characterized in long-term experiments. A PBS control group was treated with PBS or Sagopilone for 24 hrs before sacrifice. RNA for Sagopilone responder and non-responder models were isolated according to methods known in the art and were hybridized onto arrays according to the manufacturer's instructions.

A549 NSCLC cells = experiment: A549 NSCLC xenograft in nude mice: Sagopilone combined with acetazolamide; format: in vivo; settings: acetazolamide 40 mg/day p.o. with Sagopilone 6 or 8 mg/kg, FIG. 11
Procedure: FIG. 11: A549 NSCLC cells were xenotransplanted into nude mice. Mice were treated starting on day 7 after tumor transplantation as indicated: Sagopilone 6 mg/kg or 8 mg/kg were given on days 17, 32 and 45 after transplantation as indicated by arrows, acetazolamide 40 mg/day p.o. was given either daily or twice a day for five days starting on the day of Sagopilone administration (2 h before and 2 h after application of Sagopilone).

[2] = 22 NSCLC xenograft models, FIG. 4, count

## CC(=O)O[C@H]1C(=O)[C@@]2(C)[C@H]([C@H](OC(=O)c3ccccc3)[C@]3(O)C[C@H](OC(=O)[C@H](O)[C@@H](NC(=O)c4ccccc4)c4ccccc4)C(C)=C1C3(C)C)[C@]1(OC(C)=O)CO[C@@H]1C[C@@H]2O [Paclitaxel]
[1]; lung cancer xenografts
  percentage of tumors with a T/C ratio<20%: 56.2%
  percentage of responses overall (T/C): 81.2%

## C=CC[C@H]1C(=O)C(C)(C)[C@@H](O)CC(=O)O[C@H](c2ccc3sc(C)nc3c2)C[C@@H]2O[C@]2(C)CCC[C@H](C)[C@@H]1O [Sagopilone, (1S,3S,7S,10R,11S,12S,16R)-7,11-Dihydroxy-10-allyl-8,8,12,16-tetramethyl-3-(2-methyl-benzothiazol-5-yl)-4,17-dioxa-bicyclo[14.1.0]heptadecane-5,9-dione]
[1]; [2]
  samples with stable disease: three
  samples with tumor regression: Eleven
[1]; 22 NSCLC xenograft models, count of models
  models being non-responders (tumor progression), clinical criteria: eight
[1]; 22 lung cancer xenografts, tumor volume treated vs control, count of models
  models showing response / tumor growth inhibition by T/C value: 22 and 22 of 22
[1]; lung cancer xenografts, count of models
  number of NSCLC with a T/C ratio<20%: 12
[1]; lung cancer xenografts
  percentage of tumors with a T/C ratio<20%: 76.5%
[1]; model Lu7198, FIG. 3B
  response of xenograft model Lu7198: tumor progression
[1]; model Lu7298, FIG. 3A
  response of xenograft model Lu7298: tumor shrinkage
[1]; vs carboplatin, paclitaxel, gemcitabine, etoposide, vinorelbine, in words
  activity and tolerability compared with commonly used cytotoxic agents in NSCLC: superior activity and tolerability

## CC(=O)Nc1nnc(S(N)(=O)=O)s1 [acetazolamide]
A549 NSCLC cells
  effect of combination with an epothilone on tumor response: sensitization

## N.N.O=C([O-])C1(C(=O)[O-])CCC1.[Pt+2] [carboplatin]
[1]; lung cancer xenografts
  percentage of tumors with a T/C ratio<20%: 25.0%
  percentage of responses overall (T/C): 68.8%

## Nc1ccn([C@@H]2O[C@H](CO)[C@@H](O)C2(F)F)c(=O)n1 [gemcitabine]
[1]; lung cancer xenografts, b271, FIGS. 2a and 2b
  response (percentage of models), criteria not given: 61.5%
[1]; lung cancer xenografts
  percentage of tumors with a T/C ratio<20%: 47.0%
  percentage of responses overall (T/C): 80.0%
[1]; mouse, in vivo
  models in which at least 2 animals per group (n=6) could not be evaluated due to toxicity: seven
  toxicity in xenograft-bearing mice: marked toxicity
[1]; nude, mouse, in vivo
  models in which toxicity prevented evaluation of any mice: 2
